The values below come from paper PMC9646747, “An allosteric modulator activates BK channels by perturbing coupling between Ca^2+ binding and pore opening” (Nature Communications, 2022).

This assay has as its target T1, BK channel (Slo1, mslo1 mbr5 splice variant) (Mus musculus, UniProt Q08460).
T1 construct: gene Kcnma1; mbr5 splice variant of mslo1
The assay is described as follows: inside-out patch-clamp of channels expressed in Xenopus oocytes (GV shift dose response; also outward-current block, IC50 […]), supported by mutagenesis. In kind it is cell-based. For orientation: Patch clamp records ionic current or voltage across a cell membrane.

As usually defined, the EC50 is the concentration needed to bring the measured effect to its halfway point. As for `COc1cc(NC(=O)[C@@H](N)CCCNC(=N)N)cc2ccccc12` [BC5], the EC50 was determined as 2500 ± 300 nM.
